Measurements published in US10893676B2, “1-acetyl-3-phenyl urea compound, and use thereof” (Sumitomo Chemical Company, Limited, priority 2016, dated 2021).

How the values were obtained:
Amaranthus retroflexus = experiment: Post-emergence treatment test in a farmland (foliar spray, greenhouse pots); type: in vivo; settings: application rate 4 kg/ha, sprayed at two-leaf stage, visually evaluated nine days after spraying, 11 stages from 0 (no effect) to 10 (complete kill)
Procedure: Nursery soil was put in a plastic pot measuring 8 cm in diameter and 6.5 cm in height, and in the pot, seeds of Amaranthus retroflexus were sown, and then covered with soil of about 0.5 cm thickness, and the plants were grown in a greenhouse. When the Amaranthus retroflexus plants were grown to two-leaf stage, a diluted solution containing either the present compound or a compound represented by formula (B) below (which is described in European Patent No. 1122244 B2) (hereinafter, referred to as Compound B) was uniformly sprayed on the whole Amaranthus retroflexus plants so that the application rates of the chemicals would be values indicated in Table 1.
Here the diluted solution was prepared by dissolving the present compound or the compound B in dimethylformamide solution containing 2% of Tween 20 (polyoxyethylene sorbitan fatty acid ester) (manufactured by MP Biomedicals Inc.) and then diluting the solution with deionized water.
The Amaranthus retroflexus plants that were sprayed with the diluted solution containing the present compound or the compound B were grown in a greenhouse. Nine days after spraying, the efficacy for controlling Amaranthus retroflexus plants was observed, thereby examining a herbicidal effect. Here the herbicidal effect was visually observed and evaluated by classifying the effect into 11 stages from 0 (no effect) to 10 (complete kill).

Arabidopsis thaliana = experiment: Inhibitory activity on emergence of Arabidopsis thaliana (24 well plate, filter paper); type: in vivo; settings: treatment concentration 8000 ppm, visually evaluated seven days after sowing, indices 0 (no effect) to 100 (no emergence)
Procedure: Inhibitory Activity on Emergence of Arabidopsis thaliana
Each well of 24 well microtiter plates was matted with a filter paper, and to the filter paper was added dropwise the solution in which the present compound or the compound B was dissolved in acetone. After air-drying, distilled water was added to each well so that the concentration of the present compound or the compound B in each well would be 8000 ppm. Next, seeds of Arabidopsis thaliana were sown into each well containing the present compound or the compound B, followed by putting a lid on each well, and cultivating Arabidopsis thaliana under the condition that a cultivation at 25° C. under lighting for 16 hours and a successive cultivation at 25° C. under dark for 8 hours were repeated. Seven days after sowing, the inhibitory activity on emergence of Arabidopsis thaliana was visually evaluated by classifying the activity into 0 to 100 indices (0: no effect to 100: no emergence).

SMILES | Herbicidal Effect (Amaranthus retroflexus) | Inhibitory Activity on Emergence (Arabidopsis thaliana) | Herbicidal Effect (Amaranthus retroflexus; listed as present compound) | Inhibitory Activity on Emergence (Arabidopsis thaliana; listed as present compound)
CCOC(=O)COc1ncccc1Oc1cc(NC(C)=O)c(F)cc1Cl [Compound B, N-[4-chloro-2-fluoro-5-{2-(ethoxycarbonyl)methoxy-3-pyridyloxy}phenyl]acetamide, reference compound] | 1 | 30 | – | –
CCOC(=O)COc1ncccc1Oc1cc(NC(=O)NC(C)=O)c(F)cc1Cl [Present compound] | 8 | 80 | higher herbicidal effect compared to the compound B | higher inhibitory activity compared to the compound B
